Measurements from US10457677B2 (priority 2015, dated 2019).
pIC50: −log10 of the molar value. Like-named read-outs stand apart in the source and are kept apart here.

Key:
PI3K p110α/p85α (human) = PI3K p110α/p85α (human) (Homo sapiens (Human), UniProt P42336); assay: PI3K p110α/p85α (human), non-radioactive assay (HTRF); assay type: biochemical; settings: read-out: IC50 (PI3Kalpha)
PI3K (p120γ) (human) = PI3K (p120γ) (human) (Homo sapiens (Human), UniProt P48736); assay: PI3K (p120γ) (human), non-radioactive assay (HTRF); assay type: biochemical; settings: read-out: IC50 (PI3Kgamma)
Procedure, shortened: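 Enzyme was run with 10 μM phosphatidylinositol 4,5-bisphosphate, starting the reaction with MgATP at an unspecified level, for 30 min at room temperature. The stop used EDTA plus biotinylated PIP3, and detection used Eu-anti-GST, GST-GRP1 PH domain and streptavidin-APC. Signal was taken as HTRF = 10000×(Em665nm/Em620nm).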

PI3K p110δ/p85α (human) = PI3K p110δ/p85α (human) (Homo sapiens (Human), UniProt O00329); assay: PI3K p110δ/p85α (human), non-radioactive assay (HTRF); assay type: biochemical; settings: read-out: IC50 (PI3Kdelta)
mTOR (human) = mTOR (human) (Homo sapiens (Human), UniProt P42345); assay: mTOR (human) kinase assay, [γ-33P-ATP] filter assay; assay type: biochemical
Procedure, shortened: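 Radiometric filter assay: enzyme in 50 mM HEPES pH 7.5, 1 mM EGTA, 0.01% Tween 20, 3 mM MnCl2, 2 mg/ml substrate with [γ-33P-ATP], started with MgATP. Incubated 40 min at room temperature, stopped with 3% phosphoric acid; incorporation measured on P30 filtermat by scintillation counting.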

PI3K p110β/p85α (human) = PI3K p110β/p85α (human) (Homo sapiens (Human), UniProt P42338); assay: PI3K p110β/p85α (human), non-radioactive assay (HTRF); assay type: biochemical
Method: PI3K p110β/p85α (Human), Non-radioactive Assay
PI3K p110β/p85α (human) was incubated in an assay buffer comprising 10 μM phosphati-dylinositol 4,5-bisphosphate and MgATP (concentration as necessary). The reaction was initiated by addition of MgATP solution. After an incubation time of 30 min at room temperature, the reaction was stopped by addition of a solution consisting of EDTA and biotinylated phosphatidylinositol 3,4,5-trisphosphate. Finally, the detection buffer, consisting of a europium-labelled anti-GST monoclonal antibody, a GST-labelled GRP1 PH domain and streptavidin allophycocyanin, was added. The plate was read out via homogeneous time-resolved fluorescence (HTRF) and the corresponding signals were evaluated via the formula HTRF=10000×(Em665nm/Em620nm).

[1] = target: purified human recombinant ATM (ataxia telangiectasia mutated), full length (Homo sapiens (Human), UniProt Q13315); assay: ATM kinase assay - determination of ATM inhibition (IC50 ATM), TR-FRET; assay type: biochemical
Procedure, shortened: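 Full-length enzyme, expressed in a mammalian cell line, pre-incubated 15 min with inhibitor in 25 mM HEPES pH 8.0, 10 mM Mg(CH3COO)2, 1 mM MnCl2, 0,1% BSA, 0,01% Brij 35, 5 mM DTT. Full-length cmyc-p53 (Sf21-expressed) and ATP then added, 30-35 min at 22° C. EDTA stop; p53 S15 phosphorylation read by TR-FRET antibodies.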

[2] = system: phosphorylation of CHK2 (phospho-Thr68) in HCT116 cells; assay: Cellular pCHK2 assay: bleomycin-induced phosphorylation of CHK2 (phospho-Thr68), immunofluorescence high-content analysis; assay type: cell-based, human; settings: Homo sapiens, HCT-116, 4 h, read-out: IC50 (pCHK2)
Procedure, shortened: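 HCT116 cells in DMEM with 10% FCS, incubated overnight at 37° C, then given compounds (1 nM to 30 μM, 0.5% DMSO) together with 10 μM bleomycin. Phospho-Thr68 CHK2 immunostained and imaged by high-content imager; nuclei with pCHK2 above background counted, cell count from propidium iodide DNA stain.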

Chain of PI3K p110β/p85α (human) (P42338 whole entry): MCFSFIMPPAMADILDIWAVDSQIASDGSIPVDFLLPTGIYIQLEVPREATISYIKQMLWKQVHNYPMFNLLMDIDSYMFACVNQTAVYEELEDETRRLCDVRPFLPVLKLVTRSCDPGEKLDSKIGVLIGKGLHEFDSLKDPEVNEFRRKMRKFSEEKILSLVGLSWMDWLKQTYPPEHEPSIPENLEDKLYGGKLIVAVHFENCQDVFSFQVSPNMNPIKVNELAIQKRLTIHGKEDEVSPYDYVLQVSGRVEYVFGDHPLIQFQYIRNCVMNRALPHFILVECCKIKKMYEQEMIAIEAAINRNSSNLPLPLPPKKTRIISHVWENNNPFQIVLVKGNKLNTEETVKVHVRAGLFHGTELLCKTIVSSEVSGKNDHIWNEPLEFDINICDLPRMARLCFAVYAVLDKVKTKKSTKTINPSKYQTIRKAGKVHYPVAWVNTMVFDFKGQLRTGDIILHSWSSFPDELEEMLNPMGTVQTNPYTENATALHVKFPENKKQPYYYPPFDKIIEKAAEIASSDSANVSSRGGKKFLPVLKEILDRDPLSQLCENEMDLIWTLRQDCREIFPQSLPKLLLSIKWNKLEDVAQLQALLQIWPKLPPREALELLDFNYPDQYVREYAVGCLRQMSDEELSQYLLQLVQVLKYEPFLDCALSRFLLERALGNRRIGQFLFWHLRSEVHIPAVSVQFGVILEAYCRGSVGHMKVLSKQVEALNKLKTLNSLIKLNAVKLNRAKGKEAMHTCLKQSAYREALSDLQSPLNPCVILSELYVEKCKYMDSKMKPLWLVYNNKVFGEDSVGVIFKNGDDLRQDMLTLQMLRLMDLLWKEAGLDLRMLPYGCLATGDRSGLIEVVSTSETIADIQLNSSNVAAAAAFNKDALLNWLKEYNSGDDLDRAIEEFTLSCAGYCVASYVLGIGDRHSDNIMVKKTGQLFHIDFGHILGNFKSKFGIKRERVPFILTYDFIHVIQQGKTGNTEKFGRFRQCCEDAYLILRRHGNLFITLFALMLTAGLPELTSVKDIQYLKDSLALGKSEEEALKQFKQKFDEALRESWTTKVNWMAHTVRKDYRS
Chain of PI3K p110β/p85α (human) (P27986 whole entry partner): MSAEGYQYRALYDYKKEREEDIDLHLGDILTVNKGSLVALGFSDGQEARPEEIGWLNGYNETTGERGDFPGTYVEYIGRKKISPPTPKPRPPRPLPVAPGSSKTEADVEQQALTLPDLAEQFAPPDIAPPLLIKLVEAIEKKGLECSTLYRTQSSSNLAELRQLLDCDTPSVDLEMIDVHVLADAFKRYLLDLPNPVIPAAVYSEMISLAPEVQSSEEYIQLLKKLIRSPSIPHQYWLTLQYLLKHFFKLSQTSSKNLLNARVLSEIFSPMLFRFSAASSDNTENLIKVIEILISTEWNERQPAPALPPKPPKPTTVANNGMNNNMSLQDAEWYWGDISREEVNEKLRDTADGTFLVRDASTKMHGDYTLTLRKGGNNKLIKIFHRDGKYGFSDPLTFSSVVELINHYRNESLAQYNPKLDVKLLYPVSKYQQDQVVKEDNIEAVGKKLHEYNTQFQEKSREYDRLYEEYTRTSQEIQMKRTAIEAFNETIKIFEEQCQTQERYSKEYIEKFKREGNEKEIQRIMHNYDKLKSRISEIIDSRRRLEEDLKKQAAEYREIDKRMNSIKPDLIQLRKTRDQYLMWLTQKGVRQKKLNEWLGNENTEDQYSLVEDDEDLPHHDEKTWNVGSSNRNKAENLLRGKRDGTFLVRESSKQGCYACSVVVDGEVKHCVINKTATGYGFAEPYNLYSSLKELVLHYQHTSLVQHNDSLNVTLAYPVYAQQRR
Chain of PI3K p110δ/p85α (human) (O00329 whole entry): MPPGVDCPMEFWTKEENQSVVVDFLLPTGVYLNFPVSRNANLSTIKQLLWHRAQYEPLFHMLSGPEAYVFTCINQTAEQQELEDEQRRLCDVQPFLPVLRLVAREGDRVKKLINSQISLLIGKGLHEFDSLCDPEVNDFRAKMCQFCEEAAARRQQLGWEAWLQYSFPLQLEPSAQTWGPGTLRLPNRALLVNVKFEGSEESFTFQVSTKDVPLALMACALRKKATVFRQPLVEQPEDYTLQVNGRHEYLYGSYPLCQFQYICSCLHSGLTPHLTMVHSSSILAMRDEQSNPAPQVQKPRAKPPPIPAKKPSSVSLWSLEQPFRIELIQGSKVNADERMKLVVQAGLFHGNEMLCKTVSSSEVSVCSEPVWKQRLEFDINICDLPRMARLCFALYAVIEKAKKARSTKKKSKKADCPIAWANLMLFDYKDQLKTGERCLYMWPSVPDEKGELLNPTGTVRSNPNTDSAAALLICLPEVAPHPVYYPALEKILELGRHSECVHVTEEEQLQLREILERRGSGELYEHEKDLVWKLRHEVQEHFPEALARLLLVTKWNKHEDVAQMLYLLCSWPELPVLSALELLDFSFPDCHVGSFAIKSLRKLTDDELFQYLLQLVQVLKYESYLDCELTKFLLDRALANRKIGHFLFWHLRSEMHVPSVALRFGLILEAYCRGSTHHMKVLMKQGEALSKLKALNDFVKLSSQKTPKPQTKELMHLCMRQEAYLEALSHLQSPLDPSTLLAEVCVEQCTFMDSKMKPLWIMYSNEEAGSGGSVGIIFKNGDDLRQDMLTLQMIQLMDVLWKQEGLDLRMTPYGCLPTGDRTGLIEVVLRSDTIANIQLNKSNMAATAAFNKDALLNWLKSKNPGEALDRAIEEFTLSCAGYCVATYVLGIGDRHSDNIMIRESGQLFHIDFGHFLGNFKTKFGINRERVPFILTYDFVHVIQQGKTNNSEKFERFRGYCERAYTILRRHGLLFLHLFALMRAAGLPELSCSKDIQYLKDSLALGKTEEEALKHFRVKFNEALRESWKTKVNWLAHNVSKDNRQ
Chain of PI3K p110δ/p85α (human) (P27986 whole entry partner): as the sequence (P27986 whole entry partner) above
Chain of PI3K (p120γ) (human) (P48736 whole entry, the tested form may be a part): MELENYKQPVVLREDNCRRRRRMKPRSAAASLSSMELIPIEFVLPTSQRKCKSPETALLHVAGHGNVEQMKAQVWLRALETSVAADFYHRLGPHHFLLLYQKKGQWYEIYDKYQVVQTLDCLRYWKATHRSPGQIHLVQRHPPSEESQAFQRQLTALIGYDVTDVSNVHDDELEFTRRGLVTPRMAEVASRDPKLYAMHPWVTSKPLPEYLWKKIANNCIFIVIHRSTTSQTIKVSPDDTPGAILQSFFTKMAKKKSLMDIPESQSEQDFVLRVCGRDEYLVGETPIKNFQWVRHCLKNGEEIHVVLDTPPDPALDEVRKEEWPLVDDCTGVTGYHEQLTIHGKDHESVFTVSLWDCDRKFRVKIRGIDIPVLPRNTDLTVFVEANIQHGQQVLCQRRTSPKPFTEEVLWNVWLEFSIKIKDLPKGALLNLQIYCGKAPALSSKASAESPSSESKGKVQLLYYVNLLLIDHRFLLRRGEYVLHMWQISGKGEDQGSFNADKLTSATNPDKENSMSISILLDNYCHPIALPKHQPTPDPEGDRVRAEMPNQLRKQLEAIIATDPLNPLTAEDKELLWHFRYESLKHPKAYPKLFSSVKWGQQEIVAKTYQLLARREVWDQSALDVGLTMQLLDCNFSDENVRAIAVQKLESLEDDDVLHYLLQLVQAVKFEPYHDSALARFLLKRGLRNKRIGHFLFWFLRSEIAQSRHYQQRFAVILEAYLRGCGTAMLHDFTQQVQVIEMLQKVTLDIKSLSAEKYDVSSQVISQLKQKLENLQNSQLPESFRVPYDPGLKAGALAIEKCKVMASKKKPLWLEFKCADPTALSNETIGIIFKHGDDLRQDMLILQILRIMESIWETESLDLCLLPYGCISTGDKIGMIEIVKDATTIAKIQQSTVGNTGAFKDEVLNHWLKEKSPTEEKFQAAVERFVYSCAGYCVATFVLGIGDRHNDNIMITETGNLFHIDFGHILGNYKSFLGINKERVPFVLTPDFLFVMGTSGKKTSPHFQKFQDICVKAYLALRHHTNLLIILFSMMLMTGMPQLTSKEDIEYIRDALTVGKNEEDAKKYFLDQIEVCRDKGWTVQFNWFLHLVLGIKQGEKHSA
Chain of PI3K p110α/p85α (human) (P42336 whole entry): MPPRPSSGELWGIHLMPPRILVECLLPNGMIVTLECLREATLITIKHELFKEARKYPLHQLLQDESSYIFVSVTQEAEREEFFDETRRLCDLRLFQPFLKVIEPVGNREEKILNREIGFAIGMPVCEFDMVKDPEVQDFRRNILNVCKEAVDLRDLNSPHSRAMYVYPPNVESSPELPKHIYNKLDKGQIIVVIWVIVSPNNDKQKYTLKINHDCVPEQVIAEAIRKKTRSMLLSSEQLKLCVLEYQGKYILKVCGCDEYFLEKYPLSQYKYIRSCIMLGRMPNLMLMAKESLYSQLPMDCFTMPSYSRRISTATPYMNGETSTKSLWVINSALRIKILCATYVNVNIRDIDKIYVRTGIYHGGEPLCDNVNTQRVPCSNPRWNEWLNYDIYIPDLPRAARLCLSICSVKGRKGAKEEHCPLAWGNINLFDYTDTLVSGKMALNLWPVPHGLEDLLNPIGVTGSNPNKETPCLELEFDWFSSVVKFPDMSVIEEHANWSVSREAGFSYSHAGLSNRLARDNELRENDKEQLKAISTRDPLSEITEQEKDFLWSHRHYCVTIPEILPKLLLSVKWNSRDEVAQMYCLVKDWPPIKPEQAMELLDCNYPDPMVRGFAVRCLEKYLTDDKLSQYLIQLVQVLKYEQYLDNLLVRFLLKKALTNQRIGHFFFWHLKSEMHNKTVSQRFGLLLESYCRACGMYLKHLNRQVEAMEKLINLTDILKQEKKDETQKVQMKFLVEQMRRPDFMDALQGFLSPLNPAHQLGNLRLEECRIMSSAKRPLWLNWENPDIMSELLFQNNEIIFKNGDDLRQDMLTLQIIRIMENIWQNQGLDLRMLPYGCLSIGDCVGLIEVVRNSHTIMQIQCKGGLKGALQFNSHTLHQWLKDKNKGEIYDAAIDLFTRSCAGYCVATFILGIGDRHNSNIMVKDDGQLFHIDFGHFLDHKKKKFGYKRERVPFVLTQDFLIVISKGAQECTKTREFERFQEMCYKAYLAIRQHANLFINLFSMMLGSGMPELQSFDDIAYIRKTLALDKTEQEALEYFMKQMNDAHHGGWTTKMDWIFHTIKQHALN
Chain of PI3K p110α/p85α (human) (P27986 whole entry partner): as the sequence (P27986 whole entry partner) above

Compound	pIC50 (PI3K p110α/p85α (human))	pIC50 (PI3K (p120γ) (human))	pIC50 (PI3K p110δ/p85α (human))	pIC50 (mTOR (human))	pIC50 (PI3K p110β/p85α (human); read-out: IC50 (PI3Kbeta))	pIC50 [1]	pIC50 ([1]; 10 μM ATP, substrate p53)	pIC50 [2]	pIC50 (PI3K p110β/p85α (human))
COc1cc2ncc3c(c2cc1-c1cnn(C)c1)n(-c1ccncc1OC)c(=O)n3C [Compound Example 28, 7-Methoxy-1-(3-methoxy-pyridin-4-yl)-3-methyl-8-(1-methyl-1H-pyrazol-4-yl)-1,3-dihydroimidazo[4,5-c] quinolin-2-one]	< 4.52	< 4.52	< 4.52	< 4.52	< 4.52	> 8.00	> 8.00	> 6.70	–
COc1cc2ncc3c(c2cc1-c1cn(C)nc1C)n(-c1ncccc1F)c(=O)n3C [Compound Example 16, 8-(1,3-Dimethyl-1H-pyrazol-4-yl)-1-(3-fluoropyridin-2-yl)-7-methoxy-3-methyl-1,3-dihydroimidazo[4,5-c] quinolin-2-one]	< 4.52	< 4.52	< 4.52	< 4.52	< 4.52	> 9.00	> 9.00	> 6.70	–
CCn1cc(-c2cc3c(cc2OC)ncc2c3n(-c3ncccc3F)c(=O)n2C)cn1 [Compound Example 24, 8-(1-Ethyl-1H-pyrazol-4-yl)-1-(3-fluoropyridin-2-yl)-7-methoxy-3-methyl-1,3-dihydroimidazo[4,5-c] quinolin-2-one]	< 4.52	< 4.52	< 4.52	< 4.52	< 4.52	> 9.00	> 9.00	> 6.70	–
COc1cc2ncc3c(c2cc1-c1cnn(C)c1)n(-c1ccncc1F)c(=O)n3C [Compound Example 35, 1-(3-Fluoropyridin-4-yl)-7-methoxy-3-methyl-8-(1-methyl-1H-pyrazol-4-yl)-1,3-dihydroimidazo[4,5-c] quinolin-2-one]	< 4.52	< 4.52	< 4.52	< 4.52	< 4.52	> 8.00	> 8.00	> 6.70	–
COc1cc2ncc3c(c2cc1-c1cn[nH]c1)n(-c1ncc(F)cc1F)c(=O)n3C [Example 6]	< 4.52	< 4.52	< 4.52	< 4.52	–	> 9.00	> 9.00	> 6.70	< 4.52
COc1cc2ncc3c(c2cc1-c1cn[nH]c1)n(-c1ccnn1C)c(=O)n3C [Compound Example 41, 7-Methoxy-3-methyl-1-(2-methyl-2H-pyrazol-3-yl)-8-(1H-pyrazol-4-yl)-1,3-dihydroimidazo[4,5-c] quinolin-2-one]	< 4.52	< 4.52	< 4.52	< 5.00	< 4.52	> 8.00	> 8.00	6.00 to 6.70	–
COc1cc2ncc3c(c2cc1-c1cnn(C)c1)n(-c1ncc(F)cn1)c(=O)n3C [Compound Example 36, 1-(5-Fluoropyrimidin-2-yl)-7-methoxy-3-methyl-8-(1-methyl-1H-pyrazol-4-yl)-1,3-dihydroimidazo[4,5-c] quinolin-2-one]	< 4.52	< 4.52	< 4.52	< 4.52	< 4.52	> 9.00	> 8.00	> 6.70	–
COc1cc2ncc3c(c2cc1-c1cnn(C)c1)n(-c1c(C)cncc1F)c(=O)n3C [Compound Example 18, 1-(3-Fluoro-5-methylpyridin-4-yl)-7-methoxy-3-methyl-8-(1-methyl-1H-pyrazol-4-yl)-1,3-dihydroimidazo[4,5-c] quinolin-2-one]	< 5.00	< 5.30	< 4.52	< 5.30	< 4.52	> 9.00	> 8.00	> 6.70	–
